Measurements taken from patent US7601883B2, “Mammalian sour/acid taste and CSF receptor genes, polypeptides and assays” (The Regents of the University of California, priority 2005, dated 2009).

Tests used:
[1] = system: taste receptor cells of the tongue; assay: Tastant-induced chorda tympani nerve recordings, wild-type mice; type: in vivo, mouse; details: wild-type mice (WT); lingual stimulation; normalized to the response to 60 mM AceK
Text: (§1) To validate this approach as a means of uncovering TRC function, we first generated mice where T1R2-regulatory sequences were used to target DTA expression^25. T1R2 is an essential subunit of the sweet receptor heterodimer (T1R2+3), and the selective ablation of these cells should generate animals with a specific loss of sweet taste^6,9,10,17. To investigate the taste responses of the genetically modified mice, we recorded tastant-induced action potentials from nerves innervating taste receptor cells of the tongue; this physiological assay monitors the activity of the taste system at the periphery, and provides an accurate and reliable measure of taste receptor cell function. […] Next, we engineered animals where the PKD2L1 gene was used to target Cre recombinase into PKD2L1-expressing cells; appropriate expression was confirmed by performing double labeling with Cre and probes specific to PKD2L1-cells, or by crossing them to GFP reporter lines^26. Mice expressing Cre in PKD2L1 cells were crossed to conditional DTA lines, and double-positive progeny were scrutinized both for the specificity and efficiency of killing, as well as the integrity of taste buds.
(§2) Lingual stimulation and recording procedures were performed as previously described^7,9. Neural signals were amplified (10,000×) with a Grass P511 AC amplifier (Astro-Med), digitized with a Digidata 1200B A/D converter (Axon Instruments), and integrated (r.m.s. voltage) with a time constant of 0.5 s. Taste stimuli were presented at a constant flow rate of 4 ml min^−1 for 20 s intervals interspersed by 2 min rinses with artificial saliva^7,9 between presentations. All data analyses used the integrated response over a 25 s period immediately after the application of the stimulus. The mean response to 60 mM AceK was used to normalize responses to each experimental series. Tastants used for nerve recordings were: 10 mM, 60 mM acesulfameK (AceK); 10 mM, 60 mM sodium saccharin (saccharin); 300 mM sucrose; 30 mM mono potassium glutamate+1 mM inosine mono phosphate (Glu); 30 mM L alanine+1 mM inosine mono phosphate (Ala); 10 mM quinine hydrochloride (Qui); 100 μM cycloheximide (Cyx); 10 mM 6-n-propyl 2-thiouracil (PROP); 50 mM, 100 mM sodium chloride (NaCl); 10 mM, 50 mM citric acid; 10 mM, 50 mM tartaric acid; 50 mM, 500 mM acetic acid; pH 2 hydrochloric acid (HCl); 10 mM citric acid pH 2, 4 and 6.
Shown are integrated chorda tympani responses normalized to the response to 60 mM AceK; see herein for details on the ablated lines and concentrations of tastants. […] Wild type, black bars; PKD2L1-DTA, outline bars. The values are means±s.e.m. (n=5) of normalized chorda tympani responses. (c) Quantitation of acid responses of wild type (gray bars) and PKD2L1-DTA animals (outline bars). The values are means±s.e.m. (n=6).

PKD2L1-expressing TRCs = assay: Tastant-induced chorda tympani nerve recordings, mice with DTA ablation of PKD2L1-expressing cells; type: in vivo, mouse; details: PKD2L1-DTA mice (PKD2L1-expressing cells genetically ablated); range of 5 orders magnitude of proton concentrations
Text: as §1, §2

Row | SMILES | neural responses to tastant (integrated chorda tympani responses) [1] | nerve responses to acid tastants (PKD2L1-expressing TRCs)
1 | [Cl-].[Na+] [NaCl, sodium chloride] | robust neural responses | –
2 | CC1=CC(=O)NS(=O)(=O)O1 [acesulfameK] | robust neural responses | –
3 | CC(=O)O [acetic acid] | robust neural responses | completely abolished
4 | O=C(O)CC(O)(CC(=O)O)C(=O)O [citric acid] | robust neural responses | completely abolished
5 | N[C@@H](CCC(=O)O)C(=O)[O-].[K+] [glutamate, mono potassium glutamate] | robust neural responses | –
6 | Cl [hydrochloric acid] | robust neural responses | completely abolished
7 | C=C[C@H]1CN2CC[C@H]1C[C@H]2[C@H](O)c1ccnc2ccc(OC)cc12.Cl [quinine, quinine hydrochloride] | robust neural responses | –
8 | O=C1NS(=O)(=O)c2ccccc21.[Na] [saccharin, sodium saccharin] | robust neural responses | –
9 | O=C(O)C(O)C(O)C(=O)O (stereo not drawn) [tartaric acid] | – | completely abolished
